Experimental findings from ChEMBL document CHEMBL5724914, “Linking interpersonal differences in gut microbiota composition and drug biotransformation activity” (2024) are described below.

The conditions of data set [1]: human gut metagenome, 24 h, 2 µM.
For data set [2] the following is noted: human gut metagenome, 24 h, 2 µM. This is another data set of the same source.
The conditions of data set [3]: human gut metagenome, 24 h, 2 µM. The source holds these as a separate data set.
The conditions of data set [4]: human gut metagenome, 24 h, 2 µM. The source holds these as a separate data set.
The conditions of data set [5]: human gut metagenome, 24 h, 2 µM. This is another data set of the same source.
The nature of data set [6]: The drug is tested on Z-007 corresponding to rat gut metagenome with ENA study accession number: PRJEB37062 and ENA sample accession number: ERS12561807 for biotransformation under anaerobic condition. The drug concentrations were measured over 9 timepoints collected between 0 and 24 hours of incubation by liquid-chromatography-coupled mass spectrometry (LC–MS). The conditions noted are these: 2 µM.

Data set [7] in a line: The drug is tested on Z-022 corresponding to mouse gut metagenome with ENA study accession number: PRJEB37062 and ENA sample accession number: ERS12561821 for biotransformation under anaerobic condition. The drug concentrations were measured over 9 timepoints collected between 0 and 24 hours of incubation by liquid-chromatography-coupled mass spectrometry (LC–MS). The conditions noted are these: 2 µM.

A short description of data set [8]: The drug is tested on Z-023 corresponding to metagenome with ENA study accession number: PRJEB37062 and ENA sample accession number: ERS12561822 for biotransformation under anaerobic condition. The drug concentrations were measured over 9 timepoints collected between 0 and 24 hours of incubation by liquid-chromatography-coupled mass spectrometry (LC–MS). The conditions noted are these: 2 µM.

A short description of data set [9]: The drug is tested on Z-027 corresponding to metagenome with ENA study accession number: PRJEB37062 and ENA sample accession number: ERS12561826 for biotransformation under anaerobic condition. The drug concentrations were measured over 9 timepoints collected between 0 and 24 hours of incubation by liquid-chromatography-coupled mass spectrometry (LC–MS). As to conditions: 2 µM.

Data set [10] in a line: The drug is tested on WLS-350 corresponding to human gut metagenome with ENA study accession number: PRJEB37062 and ENA sample accession number: ERS12561789 for biotransformation under anaerobic condition. The drug concentrations were measured over 9 timepoints collected between 0 and 24 hours of incubation by liquid-chromatography-coupled mass spectrometry (LC–MS). As to conditions: 2 µM.

For data set [11] the following is noted: human gut metagenome, 24 h, 2 µM. The source holds these as a separate data set.
The conditions of data set [12]: human gut metagenome, 24 h, 2 µM. The source holds these as a separate data set.
Data set [13] in a line: The drug is tested on Z-010 corresponding to metagenome with ENA study accession number: PRJEB37062 and ENA sample accession number: ERS12561810 for biotransformation under anaerobic condition. The drug concentrations were measured over 9 timepoints collected between 0 and 24 hours of incubation by liquid-chromatography-coupled mass spectrometry (LC–MS). As to conditions: 2 µM.

The conditions of data set [14]: human gut metagenome, 24 h, 2 µM. This is another data set of the same source.
The conditions of data set [15]: human gut metagenome, 24 h, 2 µM. This is another data set of the same source.
The conditions of data set [16]: human gut metagenome, 24 h, 2 µM. The source holds these as a separate data set.
The nature of data set [17]: The drug is tested on WLS-007 corresponding to human gut metagenome with ENA study accession number: PRJEB37062 and ENA sample accession number: ERS12561742 for biotransformation under anaerobic condition. The drug concentrations were measured over 9 timepoints collected between 0 and 24 hours of incubation by liquid-chromatography-coupled mass spectrometry (LC–MS). The conditions noted are these: 2 µM.

Data set [18] can be described thus: The drug is tested on Z-021 corresponding to metagenome with ENA study accession number: PRJEB37062 and ENA sample accession number: ERS12561820 for biotransformation under anaerobic condition. The drug concentrations were measured over 9 timepoints collected between 0 and 24 hours of incubation by liquid-chromatography-coupled mass spectrometry (LC–MS). The conditions noted are these: 2 µM.

The conditions of data set [19]: human gut metagenome, 24 h, 2 µM. The source holds these as a separate data set.
For data set [20] the following is noted: human gut metagenome, 24 h, 2 µM. The source holds these as a separate data set.
Further: call rule not given here.

Take `COC(=O)Nc1nc2ccc(C(=O)c3ccccc3)cc2[nH]1` [MEBENDAZOLE]: the “Bacterial Biotransformation” value in data set [1], in data set [2], in data set [3], in [4], in [5] and in data set [6] was “Compound metabolized” throughout. The “Bacterial Biotransformation” value in data set [7] is reported as “Compound metabolized”; in data set [8], “Compound metabolized”; in data set [9] it was “Compound NOT metabolized”; in data set [10], “Compound NOT metabolized”; in data set [11] it was “Compound NOT metabolized”; in data set [12], “Compound NOT metabolized”. Besides, the “Bacterial Biotransformation” value in data set [13], in [14], in data set [15], in data set [16], in data set [17] and in data set [18] was “Compound metabolized” each time. Besides, the “Bacterial Biotransformation” value in data set [19] and in data set [20] was “Compound metabolized” throughout.
As to `COc1ccccc1OCC(O)COC(N)=O` (stereo not given) [METHOCARBAMOL], the “Bacterial Biotransformation” value in data set [1], in data set [2], in data set [3], in data set [4], in data set [5] and in [6] was “Compound NOT metabolized” in each case. The “Bacterial Biotransformation” value in data set [7], in [8], in data set [9], in [10], in [11] and in [12] was “Compound NOT metabolized” throughout. In addition, the “Bacterial Biotransformation” value in [13], in data set [14], in [15], in [16], in data set [17] and in data set [18] was “Compound NOT metabolized” in each case. Further, the “Bacterial Biotransformation” value in data set [19] and in data set [20] was “Compound NOT metabolized” throughout.
As to `CC[C@@H](CO)NC(=O)[C@@H]1C=C2c3cccc4c3c(cn4C)C[C@H]2N(C)C1.O=C(O)/C=C\C(=O)O` [METHYSERGIDE MALEATE], the “Bacterial Biotransformation” value in [1], in data set [2], in data set [3], in [4], in data set [5] and in data set [6] was “Compound NOT metabolized” each time. The “Bacterial Biotransformation” value in [7], in data set [8], in data set [9], in data set [10], in [11] and in [12] was “Compound NOT metabolized” in each case. Also, the “Bacterial Biotransformation” value in [13], in data set [14], in [15], in data set [16], in data set [17] and in [18] was “Compound NOT metabolized” in each case. In addition, the “Bacterial Biotransformation” value in data set [19] and in data set [20] was “Compound NOT metabolized” each time.
Consider `CCN(CC)CCNC(=O)c1cc(Cl)c(N)cc1OC` [METOCLOPRAMIDE], for which the “Bacterial Biotransformation” value in data set [1], in [2], in data set [3], in data set [4], in data set [5] and in data set [6] was “Compound NOT metabolized” each time. Moreover, the “Bacterial Biotransformation” value in data set [7], in [8], in data set [9], in data set [10], in data set [11] and in [12] was “Compound NOT metabolized” in each case. The “Bacterial Biotransformation” value in data set [13], in [14], in data set [15], in data set [16], in data set [17] and in data set [18] was “Compound NOT metabolized” in each case. In addition, the “Bacterial Biotransformation” value in [19] and in data set [20] was “Compound NOT metabolized” throughout.
On to `Cc1ccccc1N1C(=O)c2cc(S(N)(=O)=O)c(Cl)cc2NC1C` (stereo not given) [METOLAZONE], for which the “Bacterial Biotransformation” value in data set [1] is given as “Compound metabolized”; in [2] it was “Compound NOT metabolized”; in [3], “Compound NOT metabolized”; in [4], “Compound NOT metabolized”; in data set [5] it was “Compound metabolized”; in data set [6], “Compound NOT metabolized”. Besides, the “Bacterial Biotransformation” value in data set [7] is recorded as “Compound NOT metabolized”; in data set [8], “Compound NOT metabolized”; in data set [9], “Compound NOT metabolized”; in [10], “Compound metabolized”; in data set [11] it was “Compound metabolized”; in data set [12], “Compound metabolized”. The “Bacterial Biotransformation” value in [13], in [14], in [15], in [16], in data set [17] and in data set [18] was “Compound NOT metabolized” throughout. In addition, the “Bacterial Biotransformation” value in [19] and in data set [20] was “Compound NOT metabolized” in each case.
On to `COCCc1ccc(OCC(O)CNC(C)C)cc1.COCCc1ccc(OCC(O)CNC(C)C)cc1.O=C(O)C(O)C(O)C(=O)O` (stereo not given) [METOPROLOL TARTRATE], for which the “Bacterial Biotransformation” value is “Compound NOT metabolized” in data set [1]; “Compound NOT metabolized” in [2]; “Compound NOT metabolized” in data set [3]; “Compound metabolized” in data set [4]; “Compound metabolized” in [5]; “Compound NOT metabolized” in data set [6]. Further, the “Bacterial Biotransformation” value in data set [7] is “Compound NOT metabolized”; in [8], “Compound NOT metabolized”; in data set [9], “Compound NOT metabolized”; in data set [10] it was “Compound metabolized”; in data set [11], “Compound metabolized”; in [12], “Compound metabolized”. For the same compound, the “Bacterial Biotransformation” value in data set [13] is “Compound metabolized”; in [14], “Compound NOT metabolized”; in [15] it was “Compound NOT metabolized”; in data set [16], “Compound NOT metabolized”; in data set [17] it was “Compound NOT metabolized”; in data set [18], “Compound NOT metabolized”. In addition, the “Bacterial Biotransformation” value in data set [19] and in [20] was “Compound NOT metabolized” in each case.
